Key:
[1] = tested on: H1299 cells; test: Lactate production assay; format: cell-based, human
Method: (§1) Cellular lactate production was measured under normoxia with a fluorescence-based lactate assay kit (MBL). Phenol red-free RPMI medium without FBS was added to a 6 well-plate of subconfluent cells, and was incubated for 1 h at 37° C. After incubation, 1 ml of media from each well was assessed using the lactate assay kit. Cell numbers were counted by a microscope (×40). Oxygen consumption rates were measured with a Clark type electrode equipped with 782 oxygen meter (Strathkelvin Instruments). 1×10^7 cells were resuspended in RPMI 1640 medium with 10% FBS and placed into a water-jacked chamber RC300 (Strathkelvin Instruments) and recording was started immediately. Intracellular ATP concentration was measured by an ATP bioluminescent somatic cell assay kit (Sigma). 1×10^6 cells were trypsinized and resuspended in ultrapure water. Luminescence was measured with spectrofluorometer (SPECTRA Max Gemini; […]) immediately after the addition of ATP enzyme mix to cell suspension.

[2] = tested on: H1299 cells; test: Intracellular ATP assay; format: cell-based, human
Method: as §1

[3] = tested on: H1299 cells; test: Oxidative PPP flux assay using 14CO2 release; format: cell-based, human
Method: Cells were seeded on 6-cm dishes that are placed in a 10-cm dish with 2 sealed pinholes on the top. ^14CO2 released from cells was collected by completely sealing the 10-cm dish, in which the cells on the 6-cm dish were incubated in 2 ml of medium containing [1-^14C]- or [6-^14C]-glucose, respectively, at a final specific activity of 10 μCi/ml glucose at 37° C. for 3 h. The oxidative PPP flux was stopped by injecting 0.3 ml of 50% TCA through one of the holes on the top, and at the same time ^14CO2 released was trapped by injecting 0.3 ml of Hyamine Hydroxide into a small cup placed on the 10-cm dish through the second hole. Krebs cycle measurements, obtained in parallel samples incubated with [6-^14C]-glucose, were used to correct the oxidative PPP flux measurements obtained from samples incubated with [1-^14C]-glucose. Each dish was completely re-sealed with parafilm and incubated overnight at room temperature. Hyamine Hydroxide in the small cup was dissolved into 60% methanol and directly subjected to scintillation counting.

[4] = tested on: H1299 cells; test: 14C-lipid synthesis and 14C-RNA synthesis assays; format: cell-based, human
Method: ^14C-lipids synthesized from ^14C-glucose were measured. […] Wells were washed with an additional 500 μL of hexane:isopropanol solution, and extracts were combined and air dried with heat. Extracted lipids were resuspended in 50 μL of chloroform, and subjected to scintillation counting. Scintillation counts were normalized with cell numbers counted by a microscope (×40). ^14C-RNA synthesized from ^14C-glucose was measured. […] RNA was then extracted using RNeasy columns (Qiagen) and ^14C-RNA was assayed by scintillation counter. ^14C counts for each sample were normalized by the amount of RNA.

[5] = tested on: H1299 cells; test: Cell proliferation assay, H1299; format: cell-based, human
Method: For leukemia cell proliferation assay, 10×10^4 cells were seeded in non-tissue culture coated 6-well plate and incubated at 37° C. for indicated times. Cell numbers were counted by trypan blue exclusion under a microscope (×40) at indicated times and the percentage of cell proliferation was determined by comparing PGAM1 knockdown cells to pLKO.1 vector expressing cells. […] Cell viability was determined by counting drug-treated cells compared to DMSO-treated control cells with trypan blue exclusion under a microscope (×40) and by using CellTiter96Aqueous One solution proliferation kit (Promega). For adherent cell proliferation assay such as H1299 and MDA-MB231 cells, 5×10^4 cells were seeded in 6-well plate 24 h before the assay starts and were cultured at 37° C. 24 h after seeding, cells were treated with 5 μM Methyl-2PG and incubated at 37° C. for indicated times. Cell proliferation was determined by the increase in cell number indicated times after the treatment starts compared to that at the treatment starts for each cell line (T=0). Cell numbers were counted by trypan blue exclusion under a microscope (×40). For adherent cell viability assay with trypan blue exclusion, 5×10^4 cells were seeded in 6-well plate 24 h before the assay starts and were cultured at 37° C. […] Cell viability was determined by counting drug-treated cells compared to DMSO-treated control cells with trypan blue exclusion under a microscope (×40). For MTT cell viability assay of adherent cells, 5×10^3 cells were seeded in 96-well plate 24 h before the assay starts and were cultured at 37° C. […] Cell viability was determined by using CellTiter96Aqueous One solution proliferation kit (Promega).

[6] = tested on: human primary leukemia cells; test: Primary leukemia cells from human patients; format: cell-based
From the text: Approval of use of human specimens was given by the Institutional Review Board of Emory University School of Medicine. All clinical samples were obtained with informed consent with approval by the Emory University Institutional Review Board. Clinical information for the patients was obtained from the pathological files at Emory University Hospital under the guidelines and with approval from the Institutional Review Board of Emory University School of Medicine and according to the Health Insurance Portability and Accountability Act. Only samples from patients that were not previously treated with chemotherapy or radiation therapy were used. Mononuclear cells (MNCs) were isolated from peripheral blood and bone marrow samples from human leukemia patients or peripheral blood samples from healthy donors using lymphocyte separation medium (Cellgro).
Only samples from patients that were not previously treated with chemotherapy or radiation therapy were used. Mononuclear cells (MNCs) were isolated from peripheral blood and bone marrow samples from human leukemia patients or peripheral blood samples from healthy donors using lymphocyte separation medium (Cellgro).

[7] = H1299 cells treated with PGMI-004A
[8] = primary leukemia cells from a representative AML patient
[9] = samples from 7 out of 8 leukemia patients
[10] = H1299 cells with stable knockdown of PGAM1, methyl-2-PG
[11] = H1299 PGAM1 knockdown cells, methyl-2-PG

Row | Compound | lactate production [1, 7] | intracellular ATP levels [2, 7] | oxidative PPP flux [3, 7] | biosynthesis of RNA [4, 7] | biosynthesis of lipids [4, 7] | cell proliferation ([5]; H1299 cells) | 2-PG levels [6, 8] | 3-PG levels [6, 8] | PGAM1 activity [6, 9] | cell viability [6, 9] | lactate production [6, 9] | lactate production [1, 10] | intracellular ATP levels [2, 10] | oxidative PPP flux [3, 11] | biosynthesis of RNA and lipids [4, 11] | cell proliferation [5, 11] | cell viability in PGMI-004A-treated primary leukemia cells ([6]; representative AML patients, methyl-2-PG added to PGMI-004A)
1 | O=C1c2ccccc2C(=O)c2c1cc(S(=O)(=O)Nc1ccc(C(F)(F)F)cc1)c(O)c2O [PGMI-004A, N-(4-trifluoromethyl)-penyl-3,4-dihydroxy-9,10-dioxo-2-anthracenesulfonamide] | significantly reduced lactate production | no significant effect on intracellular ATP levels | decreased oxidative PPP flux | reduced | reduced | reduced | decreased | increased | reduced PGAM1 activity | decreased cell viability | reduced |  |  |  |  |  | 
2 | COC(=O)[C@@H](CO)OP(=O)(O)O [methyl-2-PG, methyl ester of D(+)-2-phosphoglyceric acid, reference compound] |  |  |  |  |  |  |  |  |  |  |  | rescues the reduced lactate production | no significant effect on intracellular ATP levels | rescues the decreased oxidative PPP flux | rescues | partially restores the reduced cell proliferation | rescues the decreased cell viability

— US10464890B2, “PGAM1 inhibitors and methods related thereto” (Emory University, priority 2011, dated 2019)
